Structures can show the parent of a compound that is named as a salt.

One may read the IC50 as the midpoint of a concentration-inhibition curve. A high value points to weaker potency in that assay.

The subject of one series is [^3 H]-GABA uptake. The series is described as follows: in vitro inhibition of [^3 H]-GABA uptake (rat cortical tissue homogenate). The conditions noted are these: tris HCl buffer pH 7.5, 60 minutes at 30° C. Type of series: biochemical, Male wistar rat. As for the experimental part:
Values for in vitro inhibition of [^3 H]-GABA uptake for the invention compounds were assessed essentially by the method of Fjalland (Acta Pharmacol. Toxicol. 1978, 42, 73-76). Male wistar rat cortical tissue was gently homogenized by hand using a glass/PTFE homogenizer in 10 volumes of 0.32M sucrose. Incubation was performed in a 40 mM tris HCl buffer (pH 7.5 at 30° C.) containing […], 4 mM MgSO4, […] and 10 mM glucose, for 60 minutes at 30° C. Values for inhibition of GABA uptake for some representative compounds are recorded in Table I.
As to `Cc1ccccc1/C=N/OCCN1CCC[C@@H](C(=O)O)C1` [Example 1, E-(R )-1-(2-((((2-Methylphenyl)methylene)amino)oxy)ethyl)-3-piperidinecarboxylic acid hydrochloride], the IC50 is above 9000 nM. `CC(C)C=C(C=NOCCN1CCC[C@@H](C(=O)O)C1)c1ccccc1` [Example 2] returned a half-maximal inhibitory concentration (IC50) of 236 nM. In turn, `CCCCCCC/C(=N/OCCN1CCC[C@@H](C(=O)O)C1)c1ccccc1` [Example 3, Z-(R)-1-(2-(((1-Phenyl-1-octanylidene)amino)oxy)ethyl)-3-piperidinecarboxylic acid hydrochloride] came in with a concentration for half-maximal inhibition (IC50) of 2200 nM. Consider `CCCCCCC/C(=N\OCCN1CCC[C@@H](C(=O)O)C1)c1ccccc1` [Example 4, E-(R)-1-(2-(((1-Phenyl-1-octanylidene)amino)oxy)ethyl)-3-piperidinecarboxylic acid hydrochloride], for which inhibition was half-maximal at 1100 nM (IC50). As for `COC/C(=N\OCCN1CCC[C@@H](C(=O)O)C1)c1ccccc1` [Example 5, Z-(R)-1-(2-(((2-Methoxy-1-phenyl-1-ethylidene)amino)oxy)ethyl)-3-piperidinecarboxylic acid hydrochloride], half-maximal inhibition (IC50) was put at 2000 nM. `O=C(O)[C@@H]1CCCN(CCO/N=C(/c2ccccc2)C(F)(F)F)C1` [Example 6, Z-(R)-1-(2-(((1-Phenyl-2,2,2-trifluoro-1-ethylidene)amino)oxy)ethyl)-3-piperidinecarboxylic acid hydrochloride] had an IC50 of 4500 nM.

Another series has as its system GABA uptake.
Assay: not given
The conditions noted are these: Yunger, L. M. et al., 1984; Krogsgaard-Larsen, P. et al., 1987; oral; cited from earlier work.
Regarding `O=C(O)C1CCCN(CCC=C(c2ccccc2)c2ccccc2)C1` (stereo not drawn) [SK&F 89976A, N-(4,4-diphenyl-3-buten-1-yl)nipecotic acid], the “orally active inhibition of GABA uptake (in words)” value (“orally active inhibition” below) is on record as “orally active inhibitors of GABA uptake”.

For `O=C(O)C1=CCCN(CCC=C(c2ccccc2)c2ccccc2)C1` [SK&F 100330A, N-(4,4-diphenyl-3-buten-1-yl)guvacine], the “orally active inhibition” value is “orally active inhibitors of GABA uptake”. Regarding `O=C(O)CC1CCN(CCC=C(c2ccccc2)c2ccccc2)C1` (stereo not drawn) [SK&F 100561, N-(4,4-diphenyl-3-buten-1-yl)-homo-β-proline], the “orally active inhibition” value is recorded as “orally active inhibitors of GABA uptake”. Consider `O=C(O)C1CCCN(CCC=C(c2ccccc2)c2cccs2)C1` (stereo not drawn) [SK&F 100604J, N-(4-phenyl-4-(2-thienyl)-3-buten-1-yl)nipecotic acid], for which the “orally active inhibition” value was “orally active inhibitors of GABA uptake”.

The same series, now with this note: from the synaptic cleft into presynaptic nerve terminals and glial cells; cited from earlier work.
For `O=C(O)C1CCCNC1` (stereo not drawn) [nipecotic acid, 3-piperidinecarboxylic acid], the “inhibition of GABA uptake (in words)” value was “well-known and potent inhibitor of GABA uptake”.

Test system in the next series: not given
Assay: not given
The conditions noted are these: relatively polar compound; cited from earlier work.
For `O=C(O)C1CCCNC1` (stereo not drawn) [nipecotic acid, 3-piperidinecarboxylic acid], the “ability to cross the blood-brain barrier (in words)” value is “unable to cross the blood-brain barrier”.

These data come from US5608069A, “1-substituted, 3-carboxylic acid piperidine derivatives” (Novo Nordisk A/S, priority 1993, dated 1997).
